Source: the supplement of paper PMC10307832

What was measured:
Experiment in all cases: relative viability (nuclei count vs DMSO), 5 days (fraction); higher = more cells survive
EMC-BAC-2 = tested on: EMC-BAC-2
Outline: (§1)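 Lung cancer cell lines were pin-tool dosed in 1536-well plates on the day after seeding, with either a lone drug or a fixed anchor-drug dose plus five library-drug doses (not always all listed) in √10 steps. Nuclei were counted on 4× images after 5 days. Relative viability is the ratio of treated-well to vehicle-well nuclei counts, with each value a median of duplicate plates.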

HARA = tested on: HARA
Outline: as §1

NCI-H2170 = tested on: NCI-H2170
Outline: as §1

SK-LU-1 = tested on: SK-LU-1
Outline: as §1

SW 1573 = tested on: SW 1573
Outline: as §1

HOP-62 = tested on: HOP-62
Outline: as §1

NCI-H1993 = tested on: NCI-H1993
Outline: as §1

COR-L23 = tested on: COR-L23
Outline: as §1

NCI-H1793 = tested on: NCI-H1793
Outline: as §1

NCI-H2228 = tested on: NCI-H2228
Outline: as §1

NCI-H3122 = tested on: NCI-H3122
Outline: as §1

SW 900 = tested on: SW 900
Outline: as §1

NCI-H727 = tested on: NCI-H727
Outline: as §1

A-427 = tested on: A-427
Outline: as §1

LU99A = tested on: LU99A
Outline: as §1

NCI-H2009 = tested on: NCI-H2009
Outline: as §1

ABC-1 = tested on: ABC-1
Outline: as §1

LXF-289 = tested on: LXF-289
Outline: as §1

NCI-H1944 = tested on: NCI-H1944
Outline: as §1

LK-2 = tested on: LK-2
Outline: as §1

SK-MES-1 = tested on: SK-MES-1
Outline: as §1

NCI-H596 = tested on: NCI-H596
Outline: as §1

PC-3 [JPC-3] = tested on: PC-3 [JPC-3]
Outline: as §1

Clc1ccc(Nc2nnc(Cc3ccncc3)c3ccccc23)cc1 [Vatalanib] + COc1cc2c(Oc3ccc(NC(=O)C4(C(=O)Nc5ccc(F)cc5)CC4)cc3F)ccnc2cc1OCCCN1CCOCC1 [Foretinib] (partner 0.25 µM)
relative viability (EMC-BAC-2; first compound 0.04 µM): 0.826 | relative viability (EMC-BAC-2; first compound 0.1265 µM): 1.01 | relative viability (EMC-BAC-2; first compound 0.4 µM): 1.09 | relative viability (EMC-BAC-2; first compound 1.265 µM): 0.919 | relative viability (EMC-BAC-2; first compound 4 µM): 1.02 | relative viability (HARA; first compound 0.04 µM): 0.853 | relative viability (HARA; first compound 0.1265 µM): 0.757 | relative viability (HARA; first compound 0.4 µM): 0.807 | relative viability (HARA; first compound 1.265 µM): 0.92 | relative viability (HARA; first compound 4 µM): 0.852 | relative viability (NCI-H2170; first compound 0.04 µM): 1.03 | relative viability (NCI-H2170; first compound 0.1265 µM): 1.09 | relative viability (NCI-H2170; first compound 0.4 µM): 1.04 | relative viability (NCI-H2170; first compound 1.265 µM): 0.978 | relative viability (NCI-H2170; first compound 4 µM): 1.02 | relative viability (SK-LU-1; first compound 0.04 µM): 0.807 | relative viability (SK-LU-1; first compound 0.1265 µM): 0.741 | relative viability (SK-LU-1; first compound 0.4 µM): 0.979 | relative viability (SK-LU-1; first compound 1.265 µM): 0.877 | relative viability (SK-LU-1; first compound 4 µM): 0.809 | relative viability (SW 1573; first compound 0.04 µM): 0.997 | relative viability (SW 1573; first compound 0.1265 µM): 0.857 | relative viability (SW 1573; first compound 0.4 µM): 1.05 | relative viability (SW 1573; first compound 1.265 µM): 0.929 | relative viability (SW 1573; first compound 4 µM): 0.9 | relative viability (HOP-62; first compound 0.04 µM): 1.16 | relative viability (HOP-62; first compound 0.1265 µM): 1.07 | relative viability (HOP-62; first compound 0.4 µM): 1.13 | relative viability (HOP-62; first compound 1.265 µM): 1.01 | relative viability (HOP-62; first compound 4 µM): 1.12 | relative viability (NCI-H1993; first compound 0.04 µM): 0.739 | relative viability (NCI-H1993; first compound 0.1265 µM): 0.745 | relative viability (NCI-H1993; first compound 0.4 µM): 0.806 | relative viability (NCI-H1993; first compound 1.265 µM): 0.739 | relative viability (NCI-H1993; first compound 4 µM): 0.75 | relative viability (COR-L23; first compound 0.04 µM): 1.08 | relative viability (COR-L23; first compound 0.1265 µM): 0.827 | relative viability (COR-L23; first compound 0.4 µM): 1.15 | relative viability (COR-L23; first compound 1.265 µM): 1.04 | relative viability (COR-L23; first compound 4 µM): 0.92 | relative viability (NCI-H1793; first compound 0.04 µM): 0.769 | relative viability (NCI-H1793; first compound 0.1265 µM): 0.787 | relative viability (NCI-H1793; first compound 0.4 µM): 0.686 | relative viability (NCI-H1793; first compound 1.265 µM): 0.663 | relative viability (NCI-H1793; first compound 4 µM): 0.608 | relative viability (NCI-H2228; first compound 0.04 µM): 0.941 | relative viability (NCI-H2228; first compound 0.1265 µM): 0.928 | relative viability (NCI-H2228; first compound 0.4 µM): 0.968 | relative viability (NCI-H2228; first compound 1.265 µM): 0.946 | relative viability (NCI-H2228; first compound 4 µM): 0.778 | relative viability (NCI-H3122; first compound 0.04 µM): 0.997 | relative viability (NCI-H3122; first compound 0.1265 µM): 0.978 | relative viability (NCI-H3122; first compound 0.4 µM): 0.939 | relative viability (NCI-H3122; first compound 1.265 µM): 0.897 | relative viability (NCI-H3122; first compound 4 µM): 0.954 | relative viability (SW 900; first compound 0.1265 µM): 0.761 | relative viability (SW 900; first compound 0.4 µM): 0.942 | relative viability (SW 900; first compound 1.265 µM): 0.922 | relative viability (SW 900; first compound 4 µM): 0.918 | relative viability (NCI-H727; first compound 0.04 µM): 0.901 | relative viability (NCI-H727; first compound 0.1265 µM): 0.724 | relative viability (NCI-H727; first compound 0.4 µM): 0.703 | relative viability (NCI-H727; first compound 1.265 µM): 0.572 | relative viability (NCI-H727; first compound 4 µM): 0.925 | relative viability (A-427; first compound 0.04 µM): 1.06 | relative viability (A-427; first compound 0.1265 µM): 0.993 | relative viability (A-427; first compound 0.4 µM): 1.14 | relative viability (A-427; first compound 1.265 µM): 0.993 | relative viability (A-427; first compound 4 µM): 1.11 | relative viability (LU99A; first compound 0.04 µM): 0.809 | relative viability (LU99A; first compound 0.1265 µM): 0.842 | relative viability (LU99A; first compound 0.4 µM): 0.917 | relative viability (LU99A; first compound 1.265 µM): 0.75 | relative viability (LU99A; first compound 4 µM): 0.848 | relative viability (NCI-H2009; first compound 0.04 µM): 1.22 | relative viability (NCI-H2009; first compound 0.1265 µM): 1.14 | relative viability (NCI-H2009; first compound 0.4 µM): 1.24 | relative viability (NCI-H2009; first compound 1.265 µM): 1.2 | relative viability (NCI-H2009; first compound 4 µM): 1.26 | relative viability (ABC-1; first compound 0.04 µM): 1.32 | relative viability (ABC-1; first compound 0.1265 µM): 1.11 | relative viability (ABC-1; first compound 1.265 µM): 1.18 | relative viability (ABC-1; first compound 4 µM): 0.989 | relative viability (LXF-289; first compound 0.04 µM): 0.97 | relative viability (LXF-289; first compound 0.1265 µM): 0.966 | relative viability (LXF-289; first compound 0.4 µM): 0.98 | relative viability (LXF-289; first compound 1.265 µM): 0.945 | relative viability (LXF-289; first compound 4 µM): 0.931 | relative viability (NCI-H1944; first compound 0.04 µM): 0.934 | relative viability (NCI-H1944; first compound 0.1265 µM): 0.891 | relative viability (NCI-H1944; first compound 0.4 µM): 0.936 | relative viability (NCI-H1944; first compound 1.265 µM): 0.892 | relative viability (NCI-H1944; first compound 4 µM): 0.87 | relative viability (LK-2; first compound 0.04 µM): 1.14 | relative viability (LK-2; first compound 0.1265 µM): 1.19 | relative viability (LK-2; first compound 0.4 µM): 1.29 | relative viability (LK-2; first compound 1.265 µM): 1.6 | relative viability (LK-2; first compound 4 µM): 1.5 | relative viability (SK-MES-1; first compound 0.04 µM): 1.02 | relative viability (SK-MES-1; first compound 0.1265 µM): 0.82 | relative viability (SK-MES-1; first compound 0.4 µM): 0.943 | relative viability (SK-MES-1; first compound 1.265 µM): 0.881 | relative viability (SK-MES-1; first compound 4 µM): 0.692 | relative viability (NCI-H596; first compound 0.04 µM): 0.775 | relative viability (NCI-H596; first compound 0.1265 µM): 1.06 | relative viability (NCI-H596; first compound 0.4 µM): 0.909 | relative viability (NCI-H596; first compound 1.265 µM): 0.81 | relative viability (NCI-H596; first compound 4 µM): 0.771 | relative viability (PC-3 [JPC-3]; first compound 0.04 µM): 1.05 | relative viability (PC-3 [JPC-3]; first compound 0.1265 µM): 0.977 | relative viability (PC-3 [JPC-3]; first compound 0.4 µM): 1.05 | relative viability (PC-3 [JPC-3]; first compound 1.265 µM): 0.987 | relative viability (PC-3 [JPC-3]; first compound 4 µM): 1.02
